# Where two headings read alike, the source gives them in different places.
# Assays:
# [1] = test system: hu-MPCC; details: In vitro Assay; ref Khetani 2012; cited from earlier work
# [2] = test system: THLE or HepG2 cells, isolated mitochondria, BSEP; details: cited from earlier work
# [3] = test system: hLiMTs; assay: Combined HCI (HCS) and cellular ATP 3D assay in hLiMTs
# [4] = test system: human hepatocytes; details: cited from earlier work
# [5] = test system: PHH; details: In vitro Assay; ref Albrecht 2019; cited from earlier work
# [6] = test system: HepG2; parameters: method as in Albrecht 2019; details: In vitro Assay; ref Albrecht 2019; cited from earlier work
# [7] = test system: HepG2 C3A spheroid, BSEP, Glu/Gal in HepG2 cells, bioactivation; details: cited from earlier work
# [8] = test system: PHH spheroids; details: cited from earlier work
# [9] = test system: rBsep; details: In vitro Assay; ref Dawson 2012; cited from earlier work
# [10] = test system: RMPCC's; details: In vitro Assay; ref Khetani 2012; cited from earlier work
# [11] = test system: HepG2 cells; details: cited from earlier work
# [12] = ref Chen 2011; cited from earlier work
# [13] = cited from earlier work
# [14] = test system: PHH; details: cited from earlier work
# [15] = test system: HepG2 cells, primary human hepatocytes; details: In vitro Assay; ref Garside 2014; cited from earlier work
# [16] = test system: HepG2 cells; details: cited from earlier work; remark: listed apart in the source
# [17] = test system: hLiMTs; details: cited from earlier work
# [18] = cited from earlier work; remark: listed apart in the source
# [19] = test system: HepaRG spheroids; assay: Combined HCI (HCS) and cellular ATP 3D assay in HepaRG spheroids
# [20] = test system: THLE-Null and THLE-3A4 cells; details: In vitro Assay; ref Gustafsson 2014; cited from earlier work
# [21] = test system: rBsep; parameters: method as in Dawson 2012; details: In vitro Assay; ref Dawson 2012; cited from earlier work
# [22] = test system: isolated mouse liver mitochondria; details: In vitro Assay; ref Porceddu 2012; cited from earlier work
# [23] = Modeled in vitro assays (cytotoxicity, mitochondrial dysfunction, BSEP), ref Aleo et al. 2019
# [24] = Microtissue model structural based (HCI), combined HCS and ATP, MEC < 25 × Cmax.tot cut-off
# [25] = In vitro Assay, ref Proctor 2017
# [26] = In vitro Assay, ref Persson 2013
compound,measurement,setting,value
"O=C1CC2(CCCC2)CC(=O)N1CCCCN1CCN(c2ncccn2)CC1 [buspirone, reference compound]",HMPCC's,[1],-VE
same,Ro2 Hybrid HRM Score,"[2]; In vitro Assay, ref Aleo 2019",-VE
same,"Rule of Two hybrid HRM Score ≥3, Aleo (2019)",[2]; [23],-VE
same,"Rule of Two hybrid HRM Score ≥8, Aleo (2019)",[2]; [23],-VE
same,AC50,"[3]; Homo sapiens, read-out: ATP endpoint AC50",5.15 µM
same,minimal effective concentration,"[3]; Homo sapiens, read-out: ATP endpoint MEC",3.12 µM
same,DILI prediction hLiMTs (HCS-MEC),[3]; [24],-VE
same,hLiMTs <25x Avg Cmax ATP,"[3]; hLiMTs, ATP endpoint, cut-off <25x Avg Cmax",-ve
same,hLiMTs <100x Avg Cmaxu ATP,"[3]; hLiMTs, ATP endpoint, cut-off <100x Avg Cmaxu",-ve
same,hLiMTs <25x Avg Cmax HCS,"[3]; hLiMTs, HCS endpoints, cut-off <25x Avg Cmax",-ve
same,hLiMTs <100x Avg Cmaxu HCS,"[3]; hLiMTs, HCS endpoints, cut-off <100x Avg Cmaxu",-ve
same,hLiMTs <25x Avg Cmax All,"[3]; hLiMTs, all endpoints (ATP and HCS), cut-off <25x Avg Cmax",-ve
same,hLiMTs Cmax max All,"[3]; hLiMTs, all endpoints, Cmax max used",-ve
same,hLiMTs Cmax min All,"[3]; hLiMTs, all endpoints, Cmax min used",-ve
same,hLiMTs <10 uM All,"[3]; hLiMTs, all endpoints, cut-off <10 uM",+ve (<10 uM)
same,hLiMTs <100x Avg Cmaxu All,"[3]; hLiMTs, all endpoints, cut-off <100x Avg Cmaxu",-ve
same,Structural based (HCI),"[4]; In vitro Assay, ref Xu 2008",-VE
same,"DILI in vitro assay prediction, Xu (2008)","[4]; Structural based (HCI), human hepatocytes, ref Xu et al. 2008",-VE
same,Cytotoxicity PHH 48 hrs,[5],-VE
same,Cytotoxicity HepG2 48 hrs,[6],-VE
same,"Bayesian Machine Learning DILI prediction, Williams (2019)","[7]; Bayesian modeling, ref Williams et al. 2019",-VE
same,Bayesian Machine Learning,"[7]; In vitro Assay, ref Williams 2019",-VE
same,hLiMTs ATP <20 x Cmax,"[8]; In vitro Assay, ref Vorrink 2018",-VE
same,"DILI in vitro assay prediction, Vorrink (2018)","[8]; PHH spheroids, ATP, 14 days, IC20 < 20 × Cmax.tot, ref Vorrink et al. 2018",-VE
same,Inhibition of rBsep cutoff<1& cmax u>.2,[9],-VE
same,Inhibition of rBsep cutoff<3,[9],-VE
same,RMPCC's,[10],-VE
same,Structural based (HCI),"[11]; In vitro Assay, ref O'Brien 2006",-VE
same,"DILI in vitro assay prediction, O'Brien (2006)","[11]; Structural based (HCI), HepG2, ref O'Brien et al. 2006",-VE
same,DILI Score (FDA) (1-8),[12],3
same,DILI severity category (Chen et al. [2016]),"[13]; LTKB DILIrank category, ref Chen et al. 2016",Ambiguous
same,DILI severity category (Chen 2016),"[13]; human DILI classification, LTKB DILIrank, ref Chen et al. 2016",Ambiguous
same,DILI severity category,"[13]; human DILI severity, ref Chen et al.",Ambiguous
same,"DILI +VE (5-8), DILI -VE (-4)",[13]; ref Chen 2016,-VE
same,DILI severity category,[13]; ref Chen 2016,Ambiguous DILI-concern
same,"PHH/100uM, Proctor (2017)","[14]; 2D PHH, ATP, IC50 threshold 100 µM, ref Proctor et al. 2017",-VE
same,PHH ATP <100uM,[14]; [25],-VE
same,Cluster 1-6 +VE Assay,[15],+VE
same,Cluser analysis,[16]; [26],-VE
same,Structural based (HCI),[16]; [26],-VE
same,"DILI in vitro assay prediction, Persson (2013)","[16]; Structural based (HCI), HepG2, ref Persson et al. 2013",-VE
same,hLiMTs ATP <100uM,[17]; [25],-VE
same,"hLiMTs/100uM, Proctor (2017)","[17]; hLiMTs, ATP, IC50 threshold 100 µM, ref Proctor et al. 2017",-VE
same,Assigned DILI category,"[18]; Chen et al. 2016 or literature alignment, ref Chen et al. 2016",1
same,In vivo DILI,[18]; […],-VE
same,In vivo DILI,[18]; ref Albrecht 2019,-VE
same,In vivo DILI,[18]; ref Dawson 2012,-VE
same,In vivo DILI,[18]; ref Garside 2014,-VE
same,In vivo DILI,[18]; ref Gustafsson 2014,-VE
same,In vivo DILI,[18]; ref Khetani 2012,-VE
same,In vivo DILI,[18]; ref O'Brien 2006,-VE
same,In vivo DILI,[18]; ref Persson 2013,-VE
same,In vivo DILI,[18]; ref Proctor 2017,-VE
same,In vivo DILI,[18]; ref Schadt 2015,-VE
same,In vivo DILI,[18]; ref Vorrink 2018,-VE
same,In vivo DILI,[18]; ref Williams 2019,-VE
same,In vivo DILI,[18]; ref Xu 2008,-VE
same,HepaRG <25x Avg Cmax ATP,"[19]; HepaRG, ATP endpoint, cut-off <25x Avg Cmax",-ve
same,HepaRG <100x Avg Cmaxu ATP,"[19]; HepaRG, ATP endpoint, cut-off <100x Avg Cmaxu",-ve
same,HepaRG <25x Avg Cmax HCS,"[19]; HepaRG, HCS endpoints, cut-off <25x Avg Cmax",-ve
same,HepaRG <100x Avg Cmaxu HCS,"[19]; HepaRG, HCS endpoints, cut-off <100x Avg Cmaxu",-ve
same,HepaRG <25x Avg Cmax All,"[19]; HepaRG, all endpoints (ATP and HCS), cut-off <25x Avg Cmax",-ve
same,HepaRG Cmax max All,"[19]; HepaRG, all endpoints, Cmax max used",-ve
same,HepaRG Cmax min All,"[19]; HepaRG, all endpoints, Cmax min used",-ve
same,HepaRG <10 uM All,"[19]; HepaRG, all endpoints, cut-off <10 uM",-ve
same,HepaRG <100x Avg Cmaxu All,"[19]; HepaRG, all endpoints, cut-off <100x Avg Cmaxu",-ve
same,DILI prediction HepaRG spheroids (HCS-MEC),[19]; [24],-VE
CCC(=O)O[C@]1(C(=O)CCl)[C@@H](C)C[C@H]2[C@@H]3CCC4=CC(=O)C=C[C@]4(C)[C@@]3(F)[C@@H](O)C[C@@]21C [clobetasol propionate],THLE-Null,[20],-VE
same,THLE-Null/3A4,[20],-VE
same,Inhibition of rBsep cutoff<1& cmax u>.2,[21],-VE
same,Inhibition of rBsep cutoff<3,[21],+VE
same,Cluster 1-6 +VE Assay,[15],-VE
same,In vivo DILI,[18]; ref Dawson 2012,-VE
same,In vivo DILI,[18]; ref Garside 2014,-VE
same,In vivo DILI,[18]; ref Gustafsson 2014,-VE
Cc1onc(-c2ccccc2Cl)c1C(=O)N[C@@H]1C(=O)N2[C@@H]1SC(C)(C)[C@@H]2C(=O)O [cloxacillin],Inhibition of rBsep cutoff<1& cmax u>.2,[21],-VE
same,Inhibition of rBsep cutoff<3,[21],-VE
CC(C)(S)[C@@H](N)C(=O)O [d-penicillamine],THLE-Null,[20],-VE
same,THLE-Null/3A4,[20],-VE
same,Inhibition of rBsep cutoff<1& cmax u>.2,[21],-VE
same,Inhibition of rBsep cutoff<3,[21],-VE
same,in vitro data EC2<=1x Cmax,[22],+VE
same,in vitro data EC20<=2uM,[22],-VE
same,In vivo DILI,[18]; ref Dawson 2012,+VE
same,In vivo DILI,[18]; ref Gustafsson 2014,+VE
same,In vivo DILI,[18]; ref Porceddu 2012,+VE

# From publication PMC7395068, “The evolution of strategies to minimise the risk of human drug-induced liver injury (DILI) in drug discovery and development” (Archives of Toxicology, 2020)
